Measured values as given in patent US20090184006A1, “METHOD FOR THE DETERMINATION OF THE ACTIVITY OF THE ORGANIC CATION TRANSPORTER” (SANOFI-AVENTIS, priority 2006, published 2009).

How the values were obtained:
rOCT2 (slc22a2) = molecular target: T1, rOCT2 (slc22a2) (Rattus norvegicus, UniProt Q9R0W2); assay: cell free electrophysiological sensor chip assay, inhibition of choline-induced current, rOCT2 CHO cell membranes; format: biochemical; details: 10 mM choline as substrate, pH 7.4, read-out: IC50 of TBA of rOCT2
T1 construct: expressed in transfected cells; host or cells: CHO cells, stably transfected; membrane fragments immobilised on the sensor chip
T1 sequence (Q9R0W2 with tags, fused parts or gaps limits assumed): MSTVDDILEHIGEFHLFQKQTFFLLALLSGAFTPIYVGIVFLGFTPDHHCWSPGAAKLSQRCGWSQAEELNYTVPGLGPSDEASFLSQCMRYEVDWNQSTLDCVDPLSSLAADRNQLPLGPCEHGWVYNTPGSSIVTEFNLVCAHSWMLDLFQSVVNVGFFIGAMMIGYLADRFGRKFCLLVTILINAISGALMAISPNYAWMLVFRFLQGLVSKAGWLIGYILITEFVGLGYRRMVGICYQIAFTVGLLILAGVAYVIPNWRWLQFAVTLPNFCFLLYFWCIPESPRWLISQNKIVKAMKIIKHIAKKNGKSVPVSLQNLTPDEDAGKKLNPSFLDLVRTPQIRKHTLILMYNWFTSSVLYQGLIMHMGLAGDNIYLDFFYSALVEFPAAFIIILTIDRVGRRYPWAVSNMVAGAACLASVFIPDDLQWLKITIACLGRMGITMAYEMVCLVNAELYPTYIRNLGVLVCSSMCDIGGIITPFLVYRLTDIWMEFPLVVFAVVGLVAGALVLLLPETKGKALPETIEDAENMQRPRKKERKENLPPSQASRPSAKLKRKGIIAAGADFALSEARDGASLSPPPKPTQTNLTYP
Procedure: IC50 was determined using 10 mM choline as a substrate.
(§1) After harvesting the cells from a virally transfected Sf9 or HighFive suspension cell line or an stably transfected adherent CHO cell line via centrifugation, aliquots of approx. 2 g wet weight cells were quick-frozen in liquid nitrogen and stored at −80° C. for further preparation.
(§2) The membrane fragments were prepared by cell rapture. Cells were homogenized by the nitrogen cell disruption method utilizing a Parr Cell Disruption Bomb (Parr Instrument Company, Illinois, USA) or the Dounce homogenisation method utilizing a Dounce Homogenisator (7 ml from Novodirect GmbH, Kehl/Rhein, Germany) and the suspension centrifuged 10 min at 4° C. and 680 g and 10 min at 4° C. and 6100 g. The supernatants were collected and again centrifuged for 1 h at 4° C. and 100,000 g in SW41 swing-out rotor.
(§3) Biosensors were prepared according to the following protocol. • 1. Addition of 30 μl mercaptane solution (2% mercaptane in isopropanol) to biosensor • 2. Incubation time: 15 min • 3. Rinsing with 3×70 μl isopropanol • 4. Vacuum dry biosensor • 5. Drying time: 30 min • 6. […]
(§4) For the determination of its activity, the OCT protein was treated consecutively with a washing, non-activating and activating solution and the electrical current was measured when changing from charging to activating treatment. […]

hOCT2 (SLC22A2) = molecular target: T2, hOCT2 (SLC22A2) (Homo sapiens, UniProt O15244, S270A); assay: cell free electrophysiological sensor chip assay, inhibition of choline-induced current, hOCT2 CHO cell membranes; format: biochemical; details: 30 mM choline as substrate (FIG. 4B legend), pH 7.4, read-out: IC50 of TBA of hOCT2
T2 construct: expressed in transfected cells; host or cells: CHO cells, stably transfected; membrane fragments immobilised on the sensor chip
T2 sequence (O15244 1-555 S270A): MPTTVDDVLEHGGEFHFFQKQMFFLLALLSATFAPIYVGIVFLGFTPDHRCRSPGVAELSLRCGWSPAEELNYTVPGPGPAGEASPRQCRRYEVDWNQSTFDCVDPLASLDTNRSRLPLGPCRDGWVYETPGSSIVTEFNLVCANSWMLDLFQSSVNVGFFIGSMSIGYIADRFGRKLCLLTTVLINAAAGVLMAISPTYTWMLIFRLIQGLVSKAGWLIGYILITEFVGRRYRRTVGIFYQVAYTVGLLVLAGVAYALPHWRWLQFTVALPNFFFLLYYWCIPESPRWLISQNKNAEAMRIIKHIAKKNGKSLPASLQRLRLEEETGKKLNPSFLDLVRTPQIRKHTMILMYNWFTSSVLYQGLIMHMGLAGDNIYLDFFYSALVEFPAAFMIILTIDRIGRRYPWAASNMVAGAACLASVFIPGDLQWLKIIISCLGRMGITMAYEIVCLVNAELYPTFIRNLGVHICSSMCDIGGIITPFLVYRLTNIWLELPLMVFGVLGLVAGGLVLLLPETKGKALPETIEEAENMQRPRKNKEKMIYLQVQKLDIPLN
Procedure: IC50 was determined using 30 mM choline as a substrate.
as §1, §2, §3, §4

- IC50 (rOCT2 (slc22a2)): 3.5 µM
- IC50 (hOCT2 (SLC22A2)): 2.9 µM
Structure (SMILES): CCCC[N+](CCCC)(CCCC)CCCC [TBA]
